Test results as given in patent publication US4724236A, “5,11-dihydro-6H-pyrido(2,3-B)(1,4)benzodiazepin-6-ones substituted in the 11-position, processes for preparing them and pharmaceutical compositions containing these compounds” (Karl Thomae GmbH, priority 1985, dated 1988).

Key:
[1] = system: oxotremorin-induced saliva secretion; test: Inhibition of oxotremorin-stimulated salivation in the rat; type: in vivo; details: iv, 15 minutes before oxotremorin 0.083 mg/kg i.v.
Method: 2. inhibition of salivation stimulated by oxotremorin in the rat and
2. Inhibition of salivation in the rat
10 female albino rats (strain Crl:COBS-CD (SD) BR) having a body weight from 120 to 150 g, were used for each treatment group, and 24 hours before the start of the test the rats were deprived of food but given free access to drinking water.
In order to determine the muscarinic effect of oxotremorin on each of the symptoms being investigated in preliminary tests, a dosage-activity curve was drawn up with at least 3 dosages for each symptom.
When testing antimuscarinic substances, the oxotremorin dose used was that which had triggered the symptom to be influenced in 90 to 100% of the animals in the preliminary test 5.
Secretion of saliva: 0.083 mg/kg i.v.
Each antimuscarinic substance was administered intraveneously in uniformly graduated dosages 15 minutes before the administration of oxotremorin. Control groups were given the solvent and suspension agent in corresponding amounts instead of the test substance.
The results were expressed as the percentage inhibition of the oxotremorin effect (percentage of animals without the symptom in question). ED50 values were determined by the method of LITCHFIELD and WILCOXON (J. Pharmacol. Exp. Ther. 96, 99, 1949).

[2] = system: pupil size; test: Mydriatic effect on the rat (increase in pupil size); type: in vivo; details: i.v.; printed as ED50 in Table I; method defines ED200 (dose doubling pupil diameter)
Method: 3. Mydriatic activity in the rat.
3. Mydriatic effect on the rat
The mydriasis was determined by measuring the increase in pupil size after intravenous injection of the test substance. The pupil size was measured with a microscope. The measurements were taken before and at various times (15, 45 and 75 minutes) after the injection of different doses of the substance. The results were expressed as the ED200. That is the dose which doubled the diameter of the pupil, compared with the basal value. The maximum effect was usually observed between 15 and 45 minutes after intravenous administration.

[3] = target: muscarinic receptors (cortex); test: Binding to muscarinic receptors, cerebral cortex (3H-NMS displacement); details: rat cerebral cortex homogenate, pH 7.4, 30° C., 45 minutes, read-out: Receptor binding test IC50, Cortex
Method: (§1) B. Studies of binding to muscarinic receptors: determining the IC50 value
(§2) Male Sprague-Dawley rats weighing from 180-220 g served as organ donors. After the heart, stomach and cerebral cortex had been removed, all other procedures were carried out in ice-cold Hepes-HCl buffer (pH 7.4; 100 m molar NaCl, 10 m molar MgCl2). The whole heart was cut up with scissors. All the organs were then homogenised in a Potter apparatus.
(§3) For the binding test the homogenised organs were diluted as follows:
(§4) The homogenised organs were incubated at a specific concentration of the radioactive ligand and a series of concentrations of the non-radioactive test substances in an Eppendorf centrifugal test tube at 30° C. The period of incubation was 45 minutes. 0.3 micro-mol of ^3 H-N-methylscopolamine (^3 H-NMS) was used as the radioactive ligand. After incubation had been ended by centrifuging at 14000 g, the radioactivity in the pellet was determined. It represents the sum of specific and non-specific binding of ^3 H-NMS. The proportion of non-specific binding was defined as the radioactivity which was bound in the presence of 1 micro-mol of quinuclidinyl benzylate. Fourfold measurements were taken in each case. The IC50 values of the non-labelled test substances were determined graphically. […]

[4] = system: heart rate, conscious dog; test: Heart rate-increasing activity (tachycardia) in the conscious dog; type: in vivo; details: Canis lupus familiaris, iv, dose for increase of 50 beats/minute, 3 to 5 dogs, read-out: Tachycardia (dog) ED50
Method: 1. tachycardiac effect in conscious dogs,
1. Heart rate-increasing activity in the conscious dog
The substances were injected intravenously and the heart rate was recorded using a tachygraph. After a control interval, increasing doses of the compound were administered in order to increase the heart rate. The next dose was injected when the effect of the preceding dose was no longer visible. The dosage of a substance which brought about an increase of 50 beats/minute (ED50) was determined graphically. Each substance was tested on 3 to 5 dogs.

[5] = target: T1, muscarinic receptors (heart) (Rattus norvegicus, UniProt P10980); test: Binding to muscarinic receptors, heart (3H-NMS displacement); details: rat whole heart homogenate, pH 7.4, 30° C., 45 minutes, read-out: Receptor binding test IC50, Heart
T1 construct: The whole heart was cut up with scissors; All the organs were then homogenised; from tissue; host or cells: rat whole heart homogenate (male Sprague-Dawley)
T1 sequence (P10980 1-466): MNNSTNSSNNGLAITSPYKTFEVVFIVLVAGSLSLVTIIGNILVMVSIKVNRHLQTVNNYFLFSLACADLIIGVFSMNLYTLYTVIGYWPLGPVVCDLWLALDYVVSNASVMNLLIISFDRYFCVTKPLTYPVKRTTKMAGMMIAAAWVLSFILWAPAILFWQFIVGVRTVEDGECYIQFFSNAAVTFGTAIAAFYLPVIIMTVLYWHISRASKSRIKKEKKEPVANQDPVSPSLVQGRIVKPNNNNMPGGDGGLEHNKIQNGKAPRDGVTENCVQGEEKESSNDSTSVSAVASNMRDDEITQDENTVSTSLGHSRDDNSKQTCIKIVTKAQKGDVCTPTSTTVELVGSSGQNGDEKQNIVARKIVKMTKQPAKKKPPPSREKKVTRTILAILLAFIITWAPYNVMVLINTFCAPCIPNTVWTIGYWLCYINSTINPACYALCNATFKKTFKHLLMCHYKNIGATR
Method: as §1, §2, §3, §4

[6] = system: platelet clots (mesenterial vein); test: Effect on platelet clots in rats (electrically induced mesenterial clots, Poliwoda et al.); type: in vivo, rat
Method: Effect on platelet clots in the rats
Essentially the method described by Poliwoda, Lilli, Hagemann, Schyma, in Z. ges. exp. Med. 145, 252, (1968) was used.
Male SPF rats (Chbb:THOM) weighing from 70 to 90 g, given free access to food (Altromin®), and water up until the start of the test, were anaesthetised with Nembutal administered by intraperitoneal route (50 to 60 mg/kg of pentobarbital-Na). In order to avoid hypothermia they were kept on a heated test bench (37° C.).
After the abdomen had been opened up with a transverse cut the loop of small intestine was taken out and fixed and a mesenterial vein with a diameter of 300 microns was placed under a binocular operation microscope with ×40 magnification. A monopolar V4A steel electrode embedded in glass, with a diameter of 100 microns at the tip, was applied to the vein as stimulating cathode. The anode was applied to the same vessel opposite the cathode. Stimulation was effected with 150 volts of direct current for a period of 100 microsec. After stimulation, the observation area was continuously rinsed with warm (37° C.) physiological saline solution.
The formation and growth of the clot was monitored under the microscope over a period of 20 minutes. Throughout the entire observation period, the percentage narrowing of the diameter of the vessel by the clot was determined and noted initially at 10 second intervals and later every minute. The results were recorded in terms of time in a coordinate system. […]
The area under the curve of the animals treated with the test substance was compared with that of the control animals. The reduction of the size of the clot under the influence of the substance was determined as the percentage reduction in the average value of the area under the curve of the substance-treated animals over the entire observation period compared with the average value of the controls.
The significance of the reduction was calculated by Student's t test for independent random samples (CAVALLI-SFORZA: Biometrie, G. Fischer-Verlag, Stuttgart 1969, page 72).

| SMILES | ED50 [1] [mg/kg] | Mydriasis (rat) ED200 (dose doubling pupil diameter) [2] | IC50 [3] [nM] | ED (50 beats/min increase) [4] [mg/kg] | IC50 [5] [nM] | "area under curve" units of area, average ± SD ([6]; 1 mg/kg i.v., n = 5, 20 minutes, significant reduction, t test, p < 0.02, control 1736.0 ± 124.2) | percentage reduction compared with controls (size of clot) ([6]; 1 mg/kg i.v., n = 5, from area under curve versus controls, p < 0.02) [%] | antithrombotic activity (in words) ([6]; rats) |
| --- | --- | --- | --- | --- | --- | --- | --- | --- |
| O=C1Nc2cccnc2N(C(=O)CCC#CCN2CCCCCC2)c2ccccc21 [Substance B, 5,11-dihydro-11-[1-oxo-6-(hexahydro-1H-azepin-1-yl)-4-hexynyl]-6H-pyrido[2,3-b][1,4]benzodiazepin-6-one] | 1.14 | 2189 micro g/kg | 220 | 0.028 | 30 |  |  |  |
| O=C1Nc2cccnc2N(C(=O)CCC#CCN2CCCCC2)c2ccccc21 [Substance A, 5,11-dihydro-11-[1-oxo-6-(1-piperidinyl)-4-hexynyl]-6H-pyrido[2,3-b][1,4]benzodiazepin-6-one] | 2.05 | ~ 3000 micro g/kg | 1200 | 0.044 | 120 |  |  |  |
| CC(CC#CCN1CCN(C)CC1)C(=O)N1c2ccccc2C(=O)Nc2cccnc21.Cl.Cl (stereo not shown) [Substance C in form of dihydrochloride, 5,11-Dihydro-11-[1-oxo-2-methyl-6-(4-methyl-1-piperazinyl)-4-hexynyl]-6H-pyrido[2,3-b][1,4]benzodiazepin-6-one dihydrochloride] |  |  |  |  |  | 1230.0 ± 188.0 units of area | 29.2 | marked antithrombotic activity |
